Assay: Release of adenosine from dissolvable silk films in PBS
Assay type: physicochemical
Conditions: within 15 minutes of exposure to 37° C. PBS; ~0.5, 0.25 or 0.125 mg adenosine per 0.2 mm^2 film
Description: Rapid dissolution of films loaded with a dye and release of the dye from the films occur when the films are immersed in ˜37° C. buffer (FIG. 10). Dissolvable silk films loaded with an active agent (e.g., ˜0.5, 0.25 or 0.125 mg of adenosine per 0.2 mm^2 film) released the majority of the drug load (approx. 80%) within 15 minutes of exposure to 37° C. phosphate buffered saline (PBS) (Data not shown).

drug load released from dissolvable silk films: approx. 80%
Structure (SMILES): Nc1ncnc2c1ncn2[C@@H]1O[C@H](CO)[C@@H](O)[C@H]1O [adenosine]

From patent publication US20150202304A1, “ENCAPSULATION OF IMMISCIBLE PHASES IN SILK FIBROIN BIOMATERIALS” (TUFTS UNIVERSITY, priority 2012, published 2015)
